We go through 29 molecules from PubChem BioAssay (NCI).

Experiment in all cases: NCI-60 cell line screen, 48 h
Assay [1] relates to OVCAR-5 ovarian.
Assay [2] has as its system COLO 205 colon.
Assay [3] deals with MOLT-4 leukemia.
Assay [4] has as its system RXF 393 renal.
Assay [5] has as its system UO-31 renal.
In assay [6] the test system is SNB-75 CNS.
For assay [7], the system named is SW-620 colon.
In assay [8] the test system is SNB-19 CNS.
Assay [9] deals with SK-MEL-2 melanoma.
Assay [10] relates to UACC-62 melanoma.

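These data come from cells grown in 96-well plates and exposed to compound for 48 hours at five concentrations. Abbreviation: GI50, concentration required for 50% inhibition of growth. TGI: concentration producing complete growth inhibition.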 Bounds are passed on as bounds.

Turning to `O=c1nc2ccc3sc4ccccc4c(=O)c3n2c(=O)[nH]1`, the TGI in [1], in assay [2], in assay [3], in [4], in [5] and in [6] was over 100 µM in each case. The TGI in assay [7] and in assay [8] was over 100 µM in each case.
With `O=c1c2cc(Br)ccc2ncn1COCc1ccccc1`, the TGI in [1], in [2], in assay [9], in assay [3], in assay [4] and in assay [5] was over 100 µM throughout. The TGI in assay [10], in assay [7] and in assay [8] was over 100 µM in each case.
With `C=CCc1ccccc1C1CC2(C(=O)OC)OC1C(C(=O)OC)=C2C(=O)OC` (centres undefined), the TGI in [1], in [2], in assay [9], in assay [3], in assay [4] and in assay [5] was over 10 µM throughout. In addition, the TGI in assay [10], in [7] and in assay [8] was over 10 µM each time.
Regarding `NC(=S)N/N=C1\CCCC1C(O)(C(F)(F)Cl)C(F)(F)Cl` (centres undefined), the TGI in assay [1], in assay [2], in assay [9], in assay [3], in assay [4] and in [10] was over 10 µM in each case. The TGI in [6], in assay [7] and in assay [8] was over 10 µM throughout.
Consider `CC(C)(CN1CCCCC1)C(/C=C/c1ccccc1)=N\NC(=O)N/N=C(/C=C/c1ccccc1)C(C)(C)CN1CCCCC1`, for which the TGI in assay [1] stood at 15.4 µM; in [2], 2.81 µM; in assay [9], 3.73 µM; in assay [3] it was 4.02 µM; in assay [5], 2.37 µM; in assay [10] it was 2.89 µM. Besides, the TGI in assay [6] is 3.05 µM; in assay [7], 3.13 µM; in [8], 3.95 µM.
On to `C=C(CCOC)CCC1CCCCC(=C)[C@H]1O` (some centres undefined), for which the TGI in assay [1], in assay [2], in assay [9], in assay [3], in assay [5] and in [10] was over 100 µM in each case. Moreover, the TGI in assay [6], in assay [7] and in [8] was over 100 µM each time.
With `C=CCOC1(CC=C)C(=O)OC2C(O)COC21O` (centres undefined), the TGI in assay [1], in assay [2], in assay [9], in [3], in assay [4] and in assay [5] was over 100 µM in each case. The TGI in assay [10], in assay [7] and in assay [8] was over 100 µM throughout.
For the molecule `COc1cc2oc(=O)cc(C)c2c(OC)c1OC(C)=O`, the TGI in [1], in [2], in assay [9], in [3], in assay [5] and in [10] was over 100 µM throughout. In addition, the TGI in assay [6], in [7] and in assay [8] was over 100 µM in each case.
Consider `O=P(O)(O)C=C=C1CCCCC1`, for which the TGI in assay [1], in assay [2], in assay [9], in assay [4], in assay [10] and in [6] was over 100 µM each time. For the same molecule, the TGI in [7] and in [8] was over 100 µM in each case.
As to `COC(=O)[C@@]1(C)CCC[C@]2(C(=O)O)C3Cc4occc4[C@H](C)[C@@H]3CCC21` (some centres undefined), the TGI in assay [1], in assay [9], in assay [3], in assay [4], in [5] and in [10] was over 100 µM throughout. Moreover, the TGI in assay [7] and in [8] was over 100 µM in each case.
Turning to `O=c1oc2cccnc2n1CCCCN1CCN(c2ccccc2)CC1`, the TGI in [1], in assay [9], in assay [3], in [4], in [5] and in [7] was over 100 µM each time. In assay [8], the TGI was over 100 µM.
As for `Cn1c2ccc(C3=NCCN3)cc2c2cc(C3=NCCN3)ccc21`, the TGI in assay [1], in assay [2], in assay [9], in [3], in assay [4] and in assay [5] was over 100 µM in each case. Also, the TGI in assay [6], in assay [7] and in [8] was over 100 µM each time.
`CC(=O)NC(=O)NC1=NCCC(=O)N1CCc1c[nH]c2ccccc12`: the TGI in assay [1], in assay [2], in assay [9], in [3], in [4] and in [5] was over 100 µM each time. Also, the TGI in assay [10], in assay [7] and in assay [8] was over 100 µM in each case.
Turning to `COc1cc2c(cc1OC)C(=O)/C(=C/c1ccc(O)cc1)CC2`, the TGI is over 10 µM in [1]; over 10 µM in [2]; over 10 µM in assay [9]; over 10 µM in assay [3]; over 10 µM in assay [4]; 4.32 µM in [5]. The TGI in assay [10], in [7] and in assay [8] was over 10 µM in each case.
On to `Cc1nc(Nc2nc3ccccc3[nH]2)nc(Cl)c1CCCl`, for which the TGI in [2], in assay [9], in assay [3], in [5], in assay [10] and in [6] was over 100 µM in each case. Besides, the TGI in [7] and in [8] was over 100 µM in each case.
As to `CC1(C)C=[N+]([O-])C(C)(C)N1O`, the TGI in assay [1], in assay [2], in assay [9], in [3], in assay [4] and in [5] was over 10 µM in each case. Besides, the TGI in assay [7] and in assay [8] was over 10 µM throughout.
Take `O=C(O)Cc1ccccc1CCc1ccccc1Cl`: the TGI in assay [1] is over 100 µM; in assay [2] it was over 100 µM; in assay [9], 91.7 µM; in [3], over 100 µM; in assay [4] it was over 100 µM; in [5], over 100 µM. Besides, the TGI in assay [6], in [7] and in assay [8] was over 100 µM throughout.
For `CC(=O)O[C@H]1CCC2[C@@H]3CCC4NC(=O)C(C#N)C[C@]4(C)C3CC[C@@]21C` (some centres undefined), the TGI in [1], in assay [2], in assay [9], in assay [3], in assay [4] and in assay [5] was over 10 µM each time. The TGI in assay [10], in assay [7] and in assay [8] was over 10 µM each time.
`O=[N+]([O-])c1cc(F)ccc1Sc1ccccc1`: the TGI in [1], in [2], in assay [9], in [3], in [4] and in assay [10] was over 10 µM throughout. Besides, the TGI in assay [6], in [7] and in assay [8] was over 10 µM in each case.
Consider `O=C1/C(=C/c2ccc(O)cc2)CCC1CNc1ccccc1` (centres undefined), for which the TGI in assay [1] came to 31.6 µM; in assay [2], 16.1 µM; in assay [4], 35.9 µM; in assay [5] it was 29 µM; in [10], 28.7 µM; in assay [6] it was 41.2 µM. Further, the TGI was 7.11 µM in [7] and 30.1 µM in [8].
As to `NNC(=O)Cn1ccnn1`, the TGI in [1], in assay [2], in [9], in assay [3], in assay [6] and in assay [7] was over 100 µM throughout. In assay [8], this molecule had a TGI of over 100 µM.
With `Cc1cc2nc(-c3c(N)ncc(C#N)c3-c3ccc(Cl)cc3)[nH]c2cc1C`, the GI50 is 14.7 µM in [1]; 6.24 µM in [2]; 20.4 µM in assay [9]; over 100 µM in assay [3]; 3.18 µM in assay [4]; 11 µM in assay [10]. Besides, the GI50 was 12.9 µM in [6], 32.4 µM in assay [7] and 19.5 µM in assay [8]. Also, the TGI in assay [1] is over 100 µM; in assay [2] it was 83.4 µM; in [9], over 100 µM; in assay [3] it was over 100 µM; in assay [4], 13.7 µM; in [10], 53.2 µM. The results for the TGI in assay [6], in [7] and in [8] were 32.4 µM, over 100 µM and 75.6 µM, respectively.
For the molecule `C[C@]12CC[C@H]3[C@@H](CCC4=C(Br)C(=O)C=C[C@@]43O)[C@@H]1CCC2=O`, the TGI is over 100 µM in [1]; over 100 µM in [2]; over 100 µM in assay [9]; over 100 µM in [3]; 57.1 µM in [4]; over 100 µM in assay [5]. Moreover, the TGI in [10], in assay [7] and in [8] was over 100 µM in each case.
As to `O=C1c2ccccc2C(=O)c2nn(N=P(CP(=Nn3nc4c(n3)C(=O)c3ccccc3C4=O)(c3ccccc3)c3ccccc3)(c3ccccc3)c3ccccc3)nc21`, the TGI in assay [1], in [2], in assay [9], in assay [3], in assay [4] and in assay [10] was over 100 µM in each case. Moreover, the TGI in assay [7] and in assay [8] was over 100 µM in each case.
For the molecule `Cc1ccc(/C=N\NC(=O)c2ccncc2)s1`, the TGI in assay [1], in [2], in assay [9], in assay [3], in assay [4] and in [5] was over 100 µM throughout. Besides, the TGI in assay [10], in [7] and in [8] was over 100 µM each time.
On to `C[PH+](c1nc2ccccc2nc1[PH+](C)C(C)(C)C)C(C)(C)C.C[PH+](c1nc2ccccc2nc1[PH+](C)C(C)(C)C)C(C)(C)C.[Au+].[Cl-]` (centres undefined), for which the GI50 in assay [1] is 0.0441 µM; in [2] it was 0.0198 µM; in [9], 0.0318 µM; in assay [4] it was 0.103 µM; in [10], 0.0371 µM; in assay [6], 0.0224 µM. Also, the GI50 in assay [7] is 0.0356 µM; in [8], 0.0453 µM. Besides, the TGI amounted to 0.457 µM in assay [1]; 0.0442 µM in assay [2]; 0.0986 µM in [9]; 0.449 µM in assay [4]; 0.165 µM in [10]; 1.34 µM in assay [6]. The figures for the TGI in assay [7] and in [8] were 1.18 µM and 1.7 µM, respectively.
On to `N#C/C(C(=O)Nc1ccccc1)=C(/N)N1CCCCC1`, for which the TGI in assay [1], in assay [2], in assay [9], in assay [3], in assay [5] and in assay [10] was over 100 µM throughout. The TGI in assay [6], in [7] and in assay [8] was over 100 µM throughout.
In the case of `O=C(O)COc1cc(-c2ccccc2)nc2ccccc12`, the TGI in assay [1], in assay [2], in assay [9], in [3], in [5] and in [6] was over 100 µM in each case. Moreover, the TGI in [7] and in assay [8] was over 100 µM each time.
For `Cc1ccc(/C=C2/NC(=S)SC2=O)cc1`, the TGI in [1] was over 100 µM; in [2], over 100 µM; in [9], over 100 µM; in assay [3] it was over 100 µM; in assay [5], 93.1 µM; in assay [6], 80.8 µM. Besides, the TGI in [7] and in assay [8] was over 100 µM each time.
